Data on 13 compounds can be found in publication PMC10091413, “Modeling the Orthosteric Binding Site of the G Protein-Coupled Odorant Receptor OR5K1” (Journal of Chemical Information and Modeling, 2023).

Usually EC50 stands for the concentration that produces a half-maximal response.

The target in experiment [1] is T1, OR5K1 L255^6.51A (Homo sapiens, UniProt Q8NHB7, L255A).
T1 construct: The protein-coding region of human OR5K1 (NM_001004736.3); IL-6-HaloTag (from expression plasmid pFN210A) (N); expressed in transfected cells; host or cells: HEK-293
T1 sequence (Q8NHB7 1-308 L255A): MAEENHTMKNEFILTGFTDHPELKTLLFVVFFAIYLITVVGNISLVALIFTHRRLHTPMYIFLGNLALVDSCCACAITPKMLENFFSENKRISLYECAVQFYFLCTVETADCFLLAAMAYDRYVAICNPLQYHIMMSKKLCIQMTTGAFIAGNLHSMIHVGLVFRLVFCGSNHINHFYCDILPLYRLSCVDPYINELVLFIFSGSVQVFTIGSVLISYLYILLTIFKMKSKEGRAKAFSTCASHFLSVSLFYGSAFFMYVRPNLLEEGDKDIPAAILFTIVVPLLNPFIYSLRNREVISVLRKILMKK
Briefly: cAMP-luminescence concentration-response assay, mutant OR5K1 L255^6.51A in HEK-293 cells. In kind it is cell-based. As to conditions: OR5K1 L255^6.51A mutant; mean ± SD, n = 4. On the procedure:
(§1) Mutants L104^3.32 and L255^6.51 were generated by PCR-based site-directed mutagenesis in two steps. Step one PCR was performed in two amplifications: one with the forward vector-internal primer and the reverse mutation-primer and the other with the forward mutation-primer and the reverse vector-internal primer. Amplification was performed with the touchdown approach described above. Both PCR amplicons were then purified and used as a template for step two. The two overlapping amplicons were annealed using the following touchdown program: denaturation (98 °C, 3 min), ten cycles containing denaturation (98 °C, 30 s), annealing (start 60 °C, 30 s), and extension (72 °C, 2 min). […]
(§2) We utilized HEK-293 cells,[101] a human embryonic kidney cell-line, as a test cell system for the functional expression of ORs.[102] […] The utilized pGloSensor-22F is a genetically engineered luciferase with a cAMP-binding pocket, allowing for measurements of a direct cAMP-dependent luminescence signal. […]
(§3) Concentration–response assays were measured 42 h post-transfection as described previously.[102] […] For luminescence measurements, the GloMax Discover microplate reader (Promega, Madison, USA) was used. After incubation for 50 min in the dark, the basal luminescence signal of each well was recorded thrice. […]

The target of experiment [2] is T2, OR5K1 (Homo sapiens, UniProt Q8NHB7).
T2 construct: The protein-coding region of human OR5K1 (NM_001004736.3); IL-6-HaloTag (from expression plasmid pFN210A) (N); expressed in transfected cells; host or cells: HEK-293
T2 sequence (Q8NHB7 1-308): T1 sequence (Q8NHB7 1-308 L255A) with A255L
Also noted: method as in PMID 34047404. The following applies: cited from earlier work; for EC50: OR5K1 agonist activity, data retrieved from the literature.

In experiment [3] the target is T3, OR5K1 L104^3.32A (Homo sapiens, UniProt Q8NHB7, L104A).
T3 construct: The protein-coding region of human OR5K1 (NM_001004736.3); IL-6-HaloTag (from expression plasmid pFN210A) (N); expressed in transfected cells; host or cells: HEK-293
T3 sequence (Q8NHB7 1-308 L104A): T1 sequence (Q8NHB7 1-308 L255A) with L104A, A255L
The experiment can be described thus: cAMP-luminescence concentration-response assay, mutant OR5K1 L104^3.32A in HEK-293 cells. In kind it is cell-based. The following applies: OR5K1 L104^3.32A mutant; mean ± SD, n = 4. On the procedure: as §1, §2, §3

Experiment [4] addresses T2, OR5K1. Briefly: cAMP-luminescence (GloSensor) concentration-response assay, OR5K1 transiently expressed in HEK-293 cells. In kind it is cell-based. The following applies: OR5K1 agonist activity, tested in this work, mean ± SD, n = 4, last tested concentration 300 μM. The procedure: We utilized HEK-293 cells,[101] a human embryonic kidney cell-line, as a test cell system for the functional expression of ORs.[102] Cells were cultivated at 37 °C, 5% CO2, and 100% humidity in 4.5 g/L D-glucose containing DMEM with 10% fetal bovine serum, 2 mM L-glutamine, 100 U/mL penicillin, and 100 U/mL streptomycin. Cells were cultured in a 96-well format (Nunclon Delta Surface, #136102; Thermo Fisher Scientific, Schwerte, Germany) at 12,000 cells/well overnight. Then, cells were transfected utilizing 0.75 μL/well ViaFect (#E4981, Promega, USA) with the following constructs: 100 ng/well of the respective OR construct, 50 ng/well of chaperone RTP1S,[103] 50 ng/well of the G protein subunit Gαolf,[104],[105] olfactory G protein subunit Gγ13,[106] and 50 ng/well of pGloSensor-22F (Promega, Madison, USA).[107] The utilized pGloSensor-22F is a genetically engineered luciferase with a cAMP-binding pocket, allowing for measurements of a direct cAMP-dependent luminescence signal. All measurements were mock-controlled, i.e. pFN210A without OR was transfected in parallel.
Concentration–response assays were measured 42 h post-transfection as described previously.[102] […] For luminescence measurements, the GloMax Discover microplate reader (Promega, Madison, USA) was used. After incubation for 50 min in the dark, the basal luminescence signal of each well was recorded thrice. Then the odorant, serially diluted in the physiological salt buffer with added Pluronic PE-10500 (BASF, Ludwigshafen, Germany), was applied to the cells, and luminescence was measured thrice after 10 min of incubation time. […]
The raw luminescence data obtained from the GloMax Discover microplate reader detection system were analyzed for concentration/response assays by averaging both data points of basal levels and data points after odorant application. For a given luminescence signal, the respective basal level was subtracted, and the now corrected data set was normalized to the maximum amplitude of the reference. […]

Numbering of substitutions follows the chain as printed. Like-named read-outs stand apart in the source and are kept apart here.

Consider `CCc1ncc(C)nc1CC` [Compound 1, 2,3-Diethyl-5-methylpyrazine], for which the EC50 is 478 ± 185 µM in experiment [1], 10.3 ± 1.06 µM in experiment [2] and 525 ± 92.3 µM in experiment [3].

Take `CCc1nc(C)cnc1C` [Compound 2, 2-Ethyl-3,6-dimethylpyrazine]: the EC50 in experiment [4] (read-out: EC50) worked out at 14.8 ± 6.69 µM.

As to `C=CCc1ccc(OC)c(OC)c1` [Compound 3, Methyl eugenol], the EC50 in experiment [2] was 62.2 ± 1.45 µM.

As to `CCc1nccnc1CC` [Compound 4, 2,3-Diethylpyrazine], in experiment [2], the EC50 is 94.4 ± 11.9 µM.

On to `CCc1nccnc1OC` [Compound 5, 2-Ethyl-3-methoxypyrazine], for which the EC50 in experiment [2] is 97.4 ± 15.6 µM.

For the compound `Cc1cnc(C)c(C)n1` [Compound 6, 2,3,5-Trimethylpyrazine], the 50% effective concentration (EC50) in experiment [2] is 139 ± 7.08 µM.

With `CCc1nccnc1C` [Compound 7, 2-Ethyl-3-methylpyrazine], the EC50 in experiment [2] is 538 ± 96.8 µM.

With `COc1nccnc1C(C)C` [Compound 9, 2-Isopropyl-3-methoxypyrazine], in experiment [2], the EC50 was 146 ± 8.83 µM.

For `CCc1nccnc1C(C)=O` [Compound 10, 2-Acetyl-3-ethylpyrazine], the EC50 in experiment [2] is 528 ± 167 µM.

Consider `CC(=O)c1nccnc1C` [Compound 11, 2-Acetyl-3-methylpyrazine], for which the EC50 in experiment [2] was 531 ± 27.6 µM.

Turning to `Cc1cncc(C)n1` [Compound 12, 2,6-Dimethylpyrazine], in experiment [2], the EC50 is 544 ± 19.5 µM.

Consider `CCc1ncc(C)nc1C` [Compound 13, 2-Ethyl-3,5-dimethylpyrazine], for which the values for the EC50 entry in experiment [4] and in experiment [4] (read-out: EC50) were “could not be measured to saturation” and more than 300 µM, respectively.

As for `c1cnccn1` [pyrazine, reference compound], the “activation of OR5K1” value in experiment [2] is listed as “does not activate”.
